Patent publication US8138184B2, “Isoxazole derivatives and pharmaceutical compositions comprising the same” (Kaohsiung Medical University, priority 2008, dated 2012)

Assays:
[1] = Cell viability by MTT assay in hADSCs; format: cell-based, human; details: human, human adipose tissue derived stem cells (hADSCs), % of control
Description: (§1) Human adipose tissue derived stem cells (hADSCs), which is derived from adipose tissue, were selected an maintained in a keratinocyte SFM medium (Gibco BRL, Gaithersburg, Md.) supplemented with 5% FBS, 100 U/ml of penicillin and streptomycin.
(§2) New synthetic compounds were dissolved in DMSO to a final concentration of 10 mM and stored at −20° C. The concentration used was 10 μM and freshly diluted to the medium with a final concentration of DMSO at 0.1%. Control cultures were treated with the same amount of DMSO as used in the corresponding experiments.
The MTT assay is a calorimetric assay based on the ability of the viable cells to reduce a soluble yellow tetrazolium salt to blue formazan crystals (Carmichael, J. et. el. Cancer Research 1987, 47, 936). After compound treatments, 350 μL of MTT solution ([…] in PBS) were added to each well and incubated for 4 hrs. DMSO was then added for another 0.5 hrs to thoroughly dissolve the dark blue crystals. The absorbance at 570 nm was measured with an ELISA reader. Inhibition of mitochondrial metabolism was shown as relative activity (% of control).

[2] = test system: Human adipose tissue derived stem cells (hADSCs); test: Cytotoxicity assay by lactate dehydrogenase (LDH) leakage in hADSCs; format: cell-based; details: 10 μM, % of total cell toxicity
Description: as §1, §2
Lactate dehydrogenase (LDH) leakage from cells was measured to quantify the cytotoxicity by using a cytotoxicity detection kit (Roche, Germany) (Crowston, J. G. et al Invest. Ophthalmol. Vis. Sci. 1998, 39, 449). Cells were previously seeded into 48-well plates (4×10^4 cells/well). After a drug treatment, the supernatants and cell layers of the cultures were collected for assay. According to the manufacturer's guidelines for the detection kit, cell layers were lysed with 1% TritonX-100, and cell lysates and supernatants were assayed in a 96-well plate, respectively. Briefly, 100 μL of catalyst solution was added in each assay well for 20 min. Absorbance was measured with an ELISA reader with a 490 nm filter. LDH leakage was shown as relative activity (% of total cell toxicity).

[3] = test system: MCF-7 cells (human breast adenocarcinoma); test: Cytotoxicity assay (MTS reduction), MCF-7; format: cell-based; details: for activity at 4 µg/mL / activity at 20 µg/mL: Homo sapiens, MCF7, 72 h, 3 days, % of DMSO control, read-out: Growth percentage MCF7 (Breast); for activity at 20 µg/mL: 20 μg/mL
Description: (§3) MCF-7 cells (human breast adenocarcinoma), NCI-H460 cells (non-small-cell lung cancer) and SF-268cells (glioblastoma cells) were cultured in a Dulbecco's modified Eagle's medium supplemented with a 10% fetal calf serum and a nonessential amino acid (Life Technologies, Inc.) and maintained at 37° C. in a humidified incubator with 5% CO2.
(§4) Human cancer cells were seeded in 96-well microtiter plates at a density of 6500, 2500 and 7500 cells/well in 100 μl of culture medium for MCF-7, NCI-H460, and SF-268, respectively. […] Cells were treated with test compounds for 3 days. Cell viability was determined by the 5-[3-(carboxymethoxy)-phenyl]-2-(4,5-dimethylthiazolyl)-3-(4-sulfophenyl)tetrazolium salt (MTS) reduction assay. Actinomycin D (10 μM, final concentration) and DMSO (0.1%, final concentration) were used as positive and vehicle controls, respectively. Results were expressed as a % of the DMSO control.

[4] = test system: NCI-H460 cells (non-small-cell lung cancer); test: Cytotoxicity assay (MTS reduction), NCI-H460; format: cell-based, human; details: for activity at 4 µg/mL / activity at 20 µg/mL: Homo sapiens, NCI-H460, 72 h, 3 days, % of DMSO control, read-out: Growth percentage NCI-H460 (Lung); for activity at 20 µg/mL: 20 μg/mL
Description: as §3, §4

[5] = test system: SF-268 cells (glioblastoma cells); test: Cytotoxicity assay (MTS reduction), SF-268; format: cell-based, human; details: for activity at 4 µg/mL / activity at 20 µg/mL: Homo sapiens, SF-268, 72 h, 3 days, % of DMSO control, read-out: Growth percentage SF-268 (CNS); for activity at 20 µg/mL: 20 μg/mL
Description: as §3, §4

| Structure (SMILES) | viability at 3 days, 10 µM [1] [%] | Cell cytotoxicity (3 days, LDH) [2] [%] | inhibition of growth of MCF7 (in words) ([3]; 4 μg/mL) | activity at 4 µg/mL ([3]; 4 μg/mL) [%] | activity at 20 µg/mL [3] [%] | inhibition of growth of NCI-H460 (in words) ([4]; 4 μg/mL) | activity at 4 µg/mL ([4]; 4 μg/mL) [%] | activity at 20 µg/mL [4] [%] | inhibition of growth of SF-268 (in words) ([5]; 4 μg/mL) | activity at 4 µg/mL ([5]; 4 μg/mL) [%] | activity at 20 µg/mL [5] [%] |
| --- | --- | --- | --- | --- | --- | --- | --- | --- | --- | --- | --- |
| CC(C)Oc1ccc2c(=O)c(-c3ccccc3)coc2c1 [Ipriflavone, reference compound] | 77 | 0 | – | – | – | – | – | – | – | – | – |
| COc1ccc(-c2cnoc2-c2ccc(OC(C)C)cc2OCCCCCCN2CCNCC2)cc1 [5g, 5-{4-Isopropoxy-2-[6-(piperazin-1-yl)hexyloxy]phenyl}-4-(4-methoxyphenyl)isoxazole] | 60 | 0 | significantly inhibit the growth | 14 | -3 | significantly inhibit the growth | 0 | -1 | significantly inhibit the growth | 20 | -1 |
| COc1ccc(-c2cnoc2-c2ccc(OC(C)C)cc2OCCCCCCCN2CCCCC2)cc1 [5l, 5-{4-Isopropoxy-2-[7-(piperidin-1-yl)heptyloxy]phenyl}-4-(4-methoxyphenyl)isoxazole] | 58 | 0 | – | 29 | 1 | – | 8 | 1 | – | 25 | 2 |
| COc1ccc(-c2cnoc2-c2ccc(OC(C)C)cc2OCCCCN2CCNCC2)cc1 [5c, 5-{4-Isopropoxy-2-[4-(piperazin-1-yl)butoxy]phenyl}-4-(4-methoxyphenyl)isoxazole] | 86 | 33 | – | 7 | -1 | – | 29 | 0 | – | 68 | -2 |
| COc1ccc(-c2cnoc2-c2ccc(OC(C)C)cc2OCCCCN2CCCCC2)cc1 [5d, 5-{4-Isopropoxy-2-[4-(piperidin-1-yl)butoxy]phenyl}-4-(4-methoxyphenyl)isoxazole] | 78 | 0 | – | 90 | 1 | – | 68 | 1 | – | 119 | 2 |
| COc1ccc(-c2cnoc2-c2ccc(OC(C)C)cc2OCCCCCCCN2CCOCC2)cc1 [5j, 4-{7-{5-isopropoxy-2-[4-(4-methoxyphenyl)isoxazol-5-yl]phenoxy}heptyl}morpholine] | 54 | 12 | – | 25 | 1 | – | 10 | 0 | – | 32 | 2 |
| COc1ccc(-c2cnoc2-c2ccc(OC(C)C)cc2OCCCCCCN2CCOCC2)cc1 [5f, 4-{6-{5-Isopropoxy-2-[4-(4-methoxyphenyl)isoxazol-5-yl]phenoxy}hexyl}morpholine] | 53 | 17 | – | 44 | -1 | – | 17 | 0 | – | 38 | 1 |
